This note sets out measurements from BindingDB's records for doi:10.3109/14756366.2011.555944 (Aristotle University of Thessaloniki, 2011).

The target in the assay is T1, Seed linoleate 13S-lipoxygenase-1 (Glycine max, UniProt P08170).
T1 sequence (P08170 whole entry): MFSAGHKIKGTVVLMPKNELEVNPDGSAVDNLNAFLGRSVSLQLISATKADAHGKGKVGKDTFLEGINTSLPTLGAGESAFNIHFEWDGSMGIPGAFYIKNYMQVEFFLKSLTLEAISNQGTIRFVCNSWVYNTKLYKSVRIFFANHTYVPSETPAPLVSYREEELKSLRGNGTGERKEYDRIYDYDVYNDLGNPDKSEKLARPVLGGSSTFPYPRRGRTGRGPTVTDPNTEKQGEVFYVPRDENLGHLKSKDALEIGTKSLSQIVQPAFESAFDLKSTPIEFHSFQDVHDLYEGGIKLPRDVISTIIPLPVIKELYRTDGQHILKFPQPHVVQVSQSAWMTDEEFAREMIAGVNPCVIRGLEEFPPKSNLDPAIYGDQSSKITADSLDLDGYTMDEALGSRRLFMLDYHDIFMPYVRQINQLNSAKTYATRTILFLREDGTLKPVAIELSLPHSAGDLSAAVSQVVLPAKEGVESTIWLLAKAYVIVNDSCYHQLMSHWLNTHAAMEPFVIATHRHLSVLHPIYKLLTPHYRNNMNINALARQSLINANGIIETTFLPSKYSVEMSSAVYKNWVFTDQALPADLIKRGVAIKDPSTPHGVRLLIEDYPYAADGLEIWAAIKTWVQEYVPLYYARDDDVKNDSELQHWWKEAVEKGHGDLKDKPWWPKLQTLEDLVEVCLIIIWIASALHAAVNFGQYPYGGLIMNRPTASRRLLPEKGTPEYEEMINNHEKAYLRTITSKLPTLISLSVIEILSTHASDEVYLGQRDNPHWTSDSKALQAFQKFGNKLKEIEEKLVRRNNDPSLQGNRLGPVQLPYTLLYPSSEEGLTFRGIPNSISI
The experiment in a line: In Vitro LOX Inhibition Assay. The following applies: 25 °C.

As for `Cc1cc(=O)oc2c3c(ccc12)OCC=CC3` [4-Methyl-8,11-dihydro-2H-oxepino[2,3-h]chromen-2-one (7b)], the concentration for half-maximal inhibition (IC50) (in general, the concentration that gives 50% inhibition) was 180 µM.
Consider `O=c1ccc2ccc3c(c2o1)CC=CCO3` [8,11-Dihydro-2H-oxepino[2,3-h]chromen-2-one (7a)], for which the half-inhibitory concentration (IC50) turned out to be 310 µM.
